Organism: Mus musculus
Assay: Compound was tested for its ability to inhibit mAb (monoclonal antibody) binding to immobilized ova-10d; inhibited the binding of seven of nine mAbs to immobilized ova-10d, A - The IC50 of these seven mAb ranged from 15 to 350 uM
Format: functional, organism-based

SMILES: COC(=O)C1C(OP(=O)(O)c2ccccc2)CC2CCC1N2C (stereo unspecified)
- IC50: A
